This passage reports IC50, melting point and inhibition results from patent publication US8354414B2, “Substituted bicyclic pyrimidines” (Cephalon, Inc, priority 2006, dated 2013).

Each structure is given as a SMILES string. Where two headings read alike, the source gives them in different places.

In series [1] the target is T1, CDK5/GST-p25 (Homo sapiens, UniProt Q00535).
T1 construct: The final construct, encoding for full-length human CDK5; made in house; host or cells: Sf21 insect cells (baculovirus co-infection)
Nature of the series: Inhibition of CDK5/GST-p25 kinase activity (ELISA with time-resolved fluorescence readout). The series is classed as biochemical. The method in brief: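 The substrate, GST-Rb(773-928), was immobilised on plates and phosphorylated for 20 min at 37 °C by 2 ng/ml CDK5/GST-p25 in HEPES pH 7.2 with 10 µM ATP and 10 mM MgCl2. Both proteins were human and co-expressed in insect cells. Ser-780 phosphorylation was read by europium time-resolved fluorescence and converted to IC50.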
On the technique in general: In an ELISA, binding on a coated surface is turned into a signal by an enzyme label.

Series [2] has as its target T2, His6-GSK-3β (Homo sapiens, UniProt P49841).
T2 construct: made in house; host or cells: Sf21 insect cells (baculovirus)
Nature of the series: Inhibition of His6-GSK-3β kinase activity (ELISA-based format, time-resolved fluorescence readout). The series is classed as biochemical. As to conditions: read-out: GSK3β IC50. The method in brief: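 Plate-bound recombinant GST-Rb substrate was phosphorylated for 30 min at 37° C by baculovirus-expressed His6-GSK-3β (200 ng/ml) at 20 μM ATP, 10 mM MgCl2, 2.5% DMSO. Europium time-resolved fluorescence of anti-phospho-Ser780 Rb signal gave inhibition, fitted to IC50.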

T1 sequence (Q00535 whole entry): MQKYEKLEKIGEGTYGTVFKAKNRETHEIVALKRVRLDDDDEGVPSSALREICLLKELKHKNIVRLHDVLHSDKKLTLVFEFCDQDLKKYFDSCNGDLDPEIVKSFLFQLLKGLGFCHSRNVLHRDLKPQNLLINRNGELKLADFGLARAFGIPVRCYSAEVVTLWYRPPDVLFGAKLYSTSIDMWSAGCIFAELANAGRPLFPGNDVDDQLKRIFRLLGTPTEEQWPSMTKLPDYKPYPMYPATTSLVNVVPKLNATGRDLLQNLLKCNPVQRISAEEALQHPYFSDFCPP
T1 sequence (Q15078 108-307 partner limits assumed): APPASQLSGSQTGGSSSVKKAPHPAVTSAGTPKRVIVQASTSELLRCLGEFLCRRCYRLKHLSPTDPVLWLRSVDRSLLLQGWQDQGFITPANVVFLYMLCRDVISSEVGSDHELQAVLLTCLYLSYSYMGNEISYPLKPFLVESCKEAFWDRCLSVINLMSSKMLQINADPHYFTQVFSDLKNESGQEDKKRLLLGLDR
T2 sequence (P49841 2-419): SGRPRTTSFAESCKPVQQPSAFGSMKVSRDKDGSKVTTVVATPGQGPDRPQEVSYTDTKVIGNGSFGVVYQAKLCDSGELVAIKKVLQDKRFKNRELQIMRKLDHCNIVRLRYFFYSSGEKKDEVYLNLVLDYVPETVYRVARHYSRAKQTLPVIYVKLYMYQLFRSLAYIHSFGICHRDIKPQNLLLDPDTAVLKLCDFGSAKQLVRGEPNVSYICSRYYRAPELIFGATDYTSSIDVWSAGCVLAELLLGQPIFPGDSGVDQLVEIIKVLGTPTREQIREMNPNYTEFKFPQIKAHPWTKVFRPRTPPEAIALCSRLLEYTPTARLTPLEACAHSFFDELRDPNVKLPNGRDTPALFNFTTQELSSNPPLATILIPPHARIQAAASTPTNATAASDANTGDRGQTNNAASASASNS

On to `CCCn1cc2c(C3C(=O)Nc4ccc(Br)cc43)nc(NC[C@@H](C)O)nc2n1` (stereo partly drawn) [Example 195, 5-Bromo-3-[6-((R)-2-hydroxy-propylamino)-2-propyl-2H-pyrazolo [3,4-d]pyrimidin-4-yl]-1,3-dihydro-indol-2-one], for which the melting point was 310 °C (dec.). The IC50 in series [1] (class symbols) was < 300 nM. Further, the IC50 in series [2] (class symbols) is < 300 nM.
For `Cn1ncc2c(C3C(=O)Nc4ccc(Cl)cc43)ncnc21` (stereo not drawn) [Example 86, 5-Chloro-3-(1-methyl-1H-pyrazolo[3,4-d]pyrimidin-4-yl)-1,3-dihydro-indol-2-one], the melting point is > 320 °C. For the same compound, the IC50 in series [1] (class symbols) is < 300 nM. Moreover, the half-maximal inhibitory concentration (IC50) in series [2] (class symbols) is > 10000 nM.
As for `COCCn1cc2c(C3C(=O)Nc4ccc(Br)cc43)nc(NCc3cccnc3)nc2n1` (stereo not drawn) [Example 232, 5-Bromo-3-{2-(2-methoxy-ethyl)-6-[(pyridin-3-ylmethyl)-amino]-2H-pyrazolo[3,4-d]pyrimidin-4-yl}-1,3-dihydro-indol-2-one], the melting point lay within 300 to 301 °C. Further, the IC50 in series [1] (class symbols) is < 300 nM. For the same compound, the IC50 in series [2] (class symbols) was < 300 nM.
The compound `CCCn1cc2c(C3C(=O)Nc4ccc(Br)cc43)nc(NCCN(C)C)nc2n1` (stereo not drawn) [Example 197, 5-Bromo-3-[6-(2-dimethylamino-ethylamino)-2-propyl-2H-pyrazolo[3,4-d]pyrimidin-4-yl]-1,3-dihydro-indol-2-one] returned a melting point of 270 to 274 °C. In addition, in series [1] (class symbols), the IC50 was < 300 nM. In series [2] (class symbols), the IC50 is < 300 nM.
`O=C1Nc2ccccc2C1c1nc(NCc2cccnc2)nc2nn(C3CCCC3)cc12` (stereo not drawn) [Example 156, 3-{2-cyclopentyl-6-[(pyridin-3-ylmethyl)-amino]-2H-pyrazolo [3,4-d]pyrimidin-4-yl}-1,3-dihydro-indol-2-one] had a melting point of 216 to 218 °C. Moreover, in series [1] (class symbols), the IC50 was < 300 nM. Further, in series [2] (class symbols), the IC50 is < 300 nM.
Regarding `CC(C)Cn1cc2c(C3C(=O)Nc4ccc(Br)cc43)nc(NCCN3CCOCC3)nc2n1` (stereo not drawn) [Example 264, 5-Bromo-3-[2-isobutyl-6-(2-morpholin-4-yl-ethylamino)-2H-pyrazolo[3,4-d]pyrimidin-4-yl]-1,3-dihydro-indol-2-one], the melting point was 282 to 287 °C. Further, the IC50 in series [1] (class symbols) was < 300 nM. The IC50 in series [2] (class symbols) is < 300 nM.
Turning to `O=c1[nH]c2ccccc2n1-c1ncnc2nn(C3CCCC3)cc12` [Example 44, 1-(2-Cyclopentyl-2H-pyrazolo[3,4-d]pyrimidin-4-yl)-1,3-dihydro-benzoimidazol-2-one], the melting point is 236 to 240 °C. Also, the IC50 in series [1] (class symbols) is > 10000 nM. Further, in series [2] (class symbols), the IC50 was > 10000 nM.
As to `O=C1Nc2ccc(C(F)(F)F)cc2C1c1ncnc2nn(C3CCCCC3)cc12` (stereo not drawn) [Example 53, 3-(2-Cyclohexyl-2H-pyrazolo [3,4-d]pyrimidin-4-yl)-5-trifluoromethyl-1,3-dihydro-indol-2-one], the melting point was > 300 °C. Moreover, the IC50 in series [1] (class symbols) was > 10000 nM. In addition, in series [2] (class symbols), the IC50 lay in the range of 300 to 3000 nM.
For the compound `O=C1Nc2ccc([N+](=O)[O-])cc2C1c1ncnc2c1cnn2C1CCCC1` (stereo not drawn) [Example 57, 3-(1-Cyclopentyl-1H-pyrazolo[3,4-d]pyrimidin-4-yl)-5-nitro-1,3-dihydro-indol-2-one], the melting point was > 300 °C (dec.). Also, the IC50 in series [1] (class symbols) was > 10000 nM. In addition, the IC50 in series [2] (class symbols) was in the range of 300 to 3000 nM.
On to `CC(C)Cn1cc2c(C3C(=O)Nc4ccc(Br)cc43)nc(Cl)nc2n1` (stereo not drawn) [Example 262, 5-Bromo-3-(6-chloro-2-isobutyl-2H-pyrazolo[3,4-d]pyrimidin-4-yl)-1,3-dihydro-indol-2-one], for which the melting point is 295 °C (dec.). Further, the IC50 in series [1] (class symbols) is > 10000 nM. Moreover, in series [2] (numeric bounds), the IC50 is > 3000 nM.
Regarding `CN(C)CCCNc1nc(C2C(=O)Nc3ccc(Br)cc32)c2cn(C3CCCC3)nc2n1` (stereo not drawn) [Example 371, 5-Bromo-3-[2-cyclopentyl-6-(3-dimethylamino-propylamino)-2H-pyrazolo [3,4-d]pyrimidin-4-yl]-1,3-dihydro-indol-2-one], the melting point was 198 to 200 °C. The IC50 in series [1] (numeric bounds) is > 3000 nM. Further, in series [2] (class symbols), the IC50 was < 300 nM.
Regarding `CCOCCn1cc2c(C3C(=O)Nc4ccc(Cl)cc43)nc(NC[C@@H](C)O)nc2n1` (stereo partly drawn) [Example 218, 5-Chloro-3-[2-(2-ethoxy-ethyl)-6-((R)-2-hydroxy-propylamino)-2H-pyrazolo[3,4-d]pyrimidin-4-yl]-1,3-dihydro-indol-2-one], the melting point was > 300 °C. Further, the IC50 in series [1] (class symbols) was < 300 nM. Also, in series [2] (class symbols), the IC50 is < 300 nM.
As for `CC(=O)NCCNc1nc(C2C(=O)Nc3ccc(C(F)(F)F)cc32)c2cn(C3CCCC3)nc2n1` (stereo not drawn) [Example 163, 3-(2-cyclopentyl-6-(2-acetylamino-ethylamino)-2H-pyrazolo [3,4-d]pyrimidin-4-yl)-5-trifluoromethyl-1,3-dihydro-indol-2-one], the melting point was > 300 °C. In series [1] (class symbols), the IC50 fell in the range of 300 to 3000 nM. Also, in series [2] (class symbols), the IC50 was < 300 nM.
For `CCCn1cc2c(C3C(=O)Nc4ccc(Br)cc43)nc(NCc3ccncc3)nc2n1` (stereo not drawn) [Example 190, 5-Bromo-3-{2-propyl-6-[(pyridine-4-ylmethyl)-amino]-2H-pyrazolo[3,4-d]pyrimidin-4-yl}-1,3-dihydro-indol-2-one], the melting point was > 300 °C. Also, the IC50 in series [1] (class symbols) is < 300 nM. Moreover, the IC50 in series [2] (class symbols) is < 300 nM.
In the case of `CC(=O)NCCNc1nc(C2C(=O)Nc3ccccc32)c2cn(C3CCCC3)nc2n1` (stereo not drawn) [Example 158, 3-(2-cyclopentyl-6-(2-acetylamino-ethylamino)-2H-pyrazolo[3,4-d]pyrimidin-4-yl)-1,3-dihydro-indol-2-one], the melting point is 238 to 240 °C. Besides, the IC50 in series [1] (numeric bounds) was > 3000 nM. The IC50 in series [2] (class symbols) is 300 to 3000 nM.
As to `O=C1Nc2cc(F)ccc2C1c1ncnc2c1cnn2C1CCCC1` (stereo not drawn) [Example 66, 3-(1-Cyclopentyl-1H-pyrazolo[3,4-d]pyrimidin-4-yl)-6-fluoro-1,3-dihydro-indol-2-one], the melting point is 230 to 233 °C. Moreover, the IC50 in series [1] (class symbols) is > 10000 nM. Besides, the IC50 in series [2] (numeric bounds) is > 3000 nM.
Take `O=C1Nc2ccc(C(F)(F)F)cc2C1c1nc(NCc2cccnc2)nc2nn(C3CCCC3)cc12` (stereo not drawn) [Example 161, 3-{2-cyclopentyl-6-[(pyridin-3-ylmethyl)-amino]-2H-pyrazolo [3,4-d]pyrimidin-4-yl}-5-trifluoromethyl-1,3-dihydro-indol-2-one]: the melting point was > 300 °C. The compound further yielded an inhibition at 10 µM in series [1] of 68%. Further, in series [2] (class symbols), the IC50 was < 300 nM.
As to `CCOCCn1cc2c(C3C(=O)Nc4ccc(Br)cc43)nc(Cl)nc2n1` (stereo not drawn) [Example 236, 5-Bromo-3-[6-chloro-2-(2-ethoxy-ethyl)-2H-pyrazolo [3,4-d]pyrimidin-4-yl)-1,3-dihydro-indol-2-one], the melting point lay within 260 to 263 °C. Further, the IC50 in series [1] (class symbols) is > 10000 nM. The IC50 in series [2] (class symbols) is > 10000 nM.
`CNCCCNc1nc(C2C(=O)Nc3ccc(Br)cc32)c2cn(C3CCCC3)nc2n1.Cl` (stereo not drawn) [Example 379, 5-Bromo-3-[2-cyclopentyl-6-(3-methylamino-propylamino)-2H-pyrazolo[3,4-d]pyrimidin-4-yl]-1,3-dihydro-indol-2-one hydrochloride salt] showed a melting point of 208 to 211 °C. The IC50 in series [1] (numeric bounds) was > 3000 nM. In addition, in series [2] (class symbols), the IC50 was < 300 nM.

A word on the IC50: it is the point on the concentration scale where inhibition reaches its midpoint. For orientation: melting point means the temperature of the solid-liquid transition. Usually inhibition stands for the percentage by which the read-out fell short of the control. A lower inhibition goes with a response near the control.
